Assay results reported in US11491134B2, “Composition for inhibiting skin cell proliferation and/or anti-inflammation method for inhibiting skin cell proliferation and/or anti-inflammation and method for treating skin diseases and/or inflammatory diseases” (Industrial Technology Research Institute, priority 2019, dated 2022).

Tested on: macrophages, RAW264.7 cells
Test: Inhibition rate on inflammation (anti-inflammatory activity): nitric oxide, Griess reagent, LPS-treated macrophages
Format: cell-based
Conditions: Mus musculus; for inhibition at 1.5625 µM: apigenin 1.5625 μM/0.42 μg/mL; for inhibition at 3.125 µM: apigenin 3.125 μM/0.84 μg/mL; for inhibition at 6.25 µM: apigenin 6.25 μM/1.69 μg/mL; for inhibition at 12.5 µM: apigenin 12.5 μM/3.38 μg/mL; for inhibition at 25 µM: apigenin 25 μM/6.76 μg/mL; for inhibition at 50 µM: apigenin 50 μM/13.51 μg/mL; for inhibition at 0.625 µM: apigenin 0.625 μM/0.17 μg/mL; for inhibition at 1.25 µM: apigenin 1.25 μM/0.34 μg/mL; for inhibition at 2.5 µM: apigenin 2.5 μM/0.68 μg/mL; for inhibition at 5 µM: apigenin 5 μM/1.35 μg/mL; for inhibition at 10 µM: apigenin 10 μM/2.70 μg/mL; for inhibition at 0.3125 µM: apigenin 0.3125 μM/0.08 μg/mL
Description: Dimethyl sulfoxide (DMSO) was used as a solvent to prepare apigenin test samples with different concentrations and luteolin test samples with different concentrations. 9 batches of experiments were performed, which respectively were Batch 1 to Batch 9. There were 6 independent experiments in each batch of experiments. In each independent experiment, inhibition rate of an apigenin test sample with a specific concentration on inflammation and inhibition rate of a luteolin test sample with a specific concentration on inflammation were determined, and inhibition rate of a combination of an apigenin test sample with the said specific concentration and a luteolin test sample with the said specific concentration on inflammation was determined. Between the independent experiments, concentrations of apigenin test samples used were different, and concentrations of luteolin test samples used were also different, however, mole ratios or weight ratios of apigenin test samples to luteolin test samples were the same. Moreover, between the batches of experiments, mole ratios or weight ratios of apigenin test samples to luteolin test samples were different. 5×10^4 macrophages, RAW264.7 cells, were inoculated in a 96-well culture plate and then placed in a 37° C. and 5% CO2 incubator for culturing overnight. After overnight culture, the supernatant was removed, and lipopolysaccharide (LPS) (50 ng/mL) and a test sample was added to the cells (refer to Table 2, and the cells of the induced group were treated with lipopolysaccharide and dimethyl sulfoxide while the cells of the control group were only treated with dimethyl sulfoxide) for reaction for 24 hours. Thereafter, the supernatant of each well in the culture plate was transferred to a new culture plate and reacted with Griess reagent (Promega, Cat. No. G2930), respectively, and then the absorbance of each well of the culture plate was determined at 540 nm by a continuous wavelength microplate reader to evaluate the content of nitric oxide (NO), and anti-inflammatory activity was calculated through the following formula: Anti-inflammation=(Induced group540 nm−Experimental group540 nm)/(Induced group540 nm−Control group540 nm) In this experiment, the synergistic effects of apigenin and luteolin were evaluated by CalcuSyn software (BIOSOFT). CalcuSyn software is an analysis software which is commonly used to analyze the drug dosage effect of single drug and multiple drugs at present. CalcuSyn software can be used to analyze drug complex interactions and automatically quantify various phenomena such as synergism and inhibition. CalcuSyn software can process the data of individual drugs and combination drugs with constant-ratio or on-constant-ratio, and can evaluate the interaction of combination drugs by the combination index (CI) (Chou and Talalay, Adv. Enzyme Regul. 22:27-55 (1984) calculated by CalcuSyn software. Calculation formula for the combination index is shown in the following: Combination index=C1/IC1+C2/IC2 C1 and C2 are the respective concentrations of the first compound and the second compound at which the activity of achieving a specific physiological or medical purpose is 50% (or 75%, or 90%) when the first compound and the second compound are analyzed in combination; IC1 and IC2 are the respective concentrations at which the activity of achieving a specific physiological or medical purpose of the first compound and the second compound is 50% (or 75%, or 90%) when the first compound and the second compound are independently analyzed. […]

O=c1cc(-c2ccc(O)cc2)oc2cc(O)cc(O)c12 [Apigenin, apigenin]
inhibition at 1.5625 µM (RAW264.7, Batch 1): 1.1%
inhibition at 3.125 µM (RAW264.7, Batch 1): 7%
inhibition at 6.25 µM (RAW264.7, Batch 1): 26.3%
inhibition at 12.5 µM (RAW264.7, Batch 1): 48.1%
inhibition at 25 µM (RAW264.7, Batch 1): 78.7%
inhibition at 50 µM (RAW264.7, Batch 1): 99.9%
inhibition at 1.5625 µM (RAW264.7, Batch 2): 2%
inhibition at 3.125 µM (RAW264.7, Batch 2): 16.6%
inhibition at 6.25 µM (RAW264.7, Batch 2): 23.7%
inhibition at 12.5 µM (RAW264.7, Batch 2): 32.9%
inhibition at 25 µM (RAW264.7, Batch 2): 74.1%
inhibition at 50 µM (RAW264.7, Batch 2): 99.9%
inhibition at 1.5625 µM (RAW264.7, Batch 3): 0.1%
inhibition at 3.125 µM (RAW264.7, Batch 3): 0.9%
inhibition at 6.25 µM (RAW264.7, Batch 3): 20.2%
inhibition at 12.5 µM (RAW264.7, Batch 3): 57.9%
inhibition at 25 µM (RAW264.7, Batch 3): 93.8%
inhibition at 50 µM (RAW264.7, Batch 3): 99.5%
inhibition at 1.5625 µM (RAW264.7, Batch 4): 0.1%
inhibition at 3.125 µM (RAW264.7, Batch 4): 0.1%
inhibition at 6.25 µM (RAW264.7, Batch 4): 12%
inhibition at 12.5 µM (RAW264.7, Batch 4): 45.4%
inhibition at 25 µM (RAW264.7, Batch 4): 93.4%
inhibition at 50 µM (RAW264.7, Batch 4): 99.9%
inhibition at 1.5625 µM (RAW264.7, Batch 5): 3.4%
inhibition at 3.125 µM (RAW264.7, Batch 5): 11.2%
inhibition at 6.25 µM (RAW264.7, Batch 5): 27.9%
inhibition at 12.5 µM (RAW264.7, Batch 5): 59.5%
inhibition at 25 µM (RAW264.7, Batch 5): 92.7%
inhibition at 50 µM (RAW264.7, Batch 5): 97.6%
inhibition at 1.5625 µM (RAW264.7, Batch 6): 18.9%
inhibition at 3.125 µM (RAW264.7, Batch 6): 7.4%
inhibition at 6.25 µM (RAW264.7, Batch 6): 28.9%
inhibition at 12.5 µM (RAW264.7, Batch 6): 59.4%
inhibition at 25 µM (RAW264.7, Batch 6): 97.2%
inhibition at 50 µM (RAW264.7, Batch 6): 99.9%
inhibition at 0.625 µM (RAW264.7, Batch 7): 0.1%
inhibition at 1.25 µM (RAW264.7, Batch 7): 0.1%
inhibition at 2.5 µM (RAW264.7, Batch 7): 3.2%
inhibition at 5 µM (RAW264.7, Batch 7): 30%
inhibition at 10 µM (RAW264.7, Batch 7): 65.3%
inhibition at 20 µM (RAW264.7, Batch 7, apigenin 20 μM/5.40 μg/mL): 96%
inhibition at 0.3125 µM (RAW264.7, Batch 8): 0.1%
inhibition at 0.625 µM (RAW264.7, Batch 8): 0.1%
inhibition at 1.25 µM (RAW264.7, Batch 8): 0.1%
inhibition at 2.5 µM (RAW264.7, Batch 8): 0.6%
inhibition at 5 µM (RAW264.7, Batch 8): 20.6%
inhibition at 10 µM (RAW264.7, Batch 8): 51%
inhibition at 0.078 µM (RAW264.7, Batch 9, apigenin 0.078 μM/0.02 μg/mL): 2%
inhibition at 0.156 µM (RAW264.7, Batch 9, apigenin 0.156 μM/0.04 μg/mL): 0.2%
inhibition at 0.3125 µM (RAW264.7, Batch 9): 10.4%
inhibition at 0.625 µM (RAW264.7, Batch 9): 6.5%
inhibition at 1.25 µM (RAW264.7, Batch 9): 6.5%
inhibition at 2.5 µM (RAW264.7, Batch 9): 14.9%
